What was measured:
[1] = target: Calcium-activated potassium channel subunit alpha-1 KCNMA1 (Mus musculus) (UniProt Q08460); experiment: Compound was tested for its effect on maxi-K-mediated outward current in Xenopus laevis oocytes expressing the cloned maxi-K channel mslo at a concentration of 20 uM; settings: oocyte
[2] = species: Rattus norvegicus; experiment: Compound was tested for percentage inhibition of isometric force in response to a test compound in isolated rat bladder strips pre-contracted with carbachol at a concentration of 20 uM; assay type: functional
[3] = species: Rattus norvegicus; experiment: Compound was tested for percentage inhibition of isometric force in response to a test compound in isolated rat bladder strips pre-contracted with carbachol at a concentration of 3 uM; assay type: functional
[4] = target: Calcium-activated potassium channel subunit alpha-1 KCNMA1 (Homo sapiens) (UniProt Q12791); experiment: Compound was tested for its effect on maxi-K-mediated outward current in Xenopus laevis oocytes expressing the cloned maxi-K channel hslo at a concentration of 1 uM; settings: oocyte
Chain of Calcium-activated potassium channel subunit alpha-1 KCNMA1 (Homo sapiens) (Q12791 whole entry, looked up): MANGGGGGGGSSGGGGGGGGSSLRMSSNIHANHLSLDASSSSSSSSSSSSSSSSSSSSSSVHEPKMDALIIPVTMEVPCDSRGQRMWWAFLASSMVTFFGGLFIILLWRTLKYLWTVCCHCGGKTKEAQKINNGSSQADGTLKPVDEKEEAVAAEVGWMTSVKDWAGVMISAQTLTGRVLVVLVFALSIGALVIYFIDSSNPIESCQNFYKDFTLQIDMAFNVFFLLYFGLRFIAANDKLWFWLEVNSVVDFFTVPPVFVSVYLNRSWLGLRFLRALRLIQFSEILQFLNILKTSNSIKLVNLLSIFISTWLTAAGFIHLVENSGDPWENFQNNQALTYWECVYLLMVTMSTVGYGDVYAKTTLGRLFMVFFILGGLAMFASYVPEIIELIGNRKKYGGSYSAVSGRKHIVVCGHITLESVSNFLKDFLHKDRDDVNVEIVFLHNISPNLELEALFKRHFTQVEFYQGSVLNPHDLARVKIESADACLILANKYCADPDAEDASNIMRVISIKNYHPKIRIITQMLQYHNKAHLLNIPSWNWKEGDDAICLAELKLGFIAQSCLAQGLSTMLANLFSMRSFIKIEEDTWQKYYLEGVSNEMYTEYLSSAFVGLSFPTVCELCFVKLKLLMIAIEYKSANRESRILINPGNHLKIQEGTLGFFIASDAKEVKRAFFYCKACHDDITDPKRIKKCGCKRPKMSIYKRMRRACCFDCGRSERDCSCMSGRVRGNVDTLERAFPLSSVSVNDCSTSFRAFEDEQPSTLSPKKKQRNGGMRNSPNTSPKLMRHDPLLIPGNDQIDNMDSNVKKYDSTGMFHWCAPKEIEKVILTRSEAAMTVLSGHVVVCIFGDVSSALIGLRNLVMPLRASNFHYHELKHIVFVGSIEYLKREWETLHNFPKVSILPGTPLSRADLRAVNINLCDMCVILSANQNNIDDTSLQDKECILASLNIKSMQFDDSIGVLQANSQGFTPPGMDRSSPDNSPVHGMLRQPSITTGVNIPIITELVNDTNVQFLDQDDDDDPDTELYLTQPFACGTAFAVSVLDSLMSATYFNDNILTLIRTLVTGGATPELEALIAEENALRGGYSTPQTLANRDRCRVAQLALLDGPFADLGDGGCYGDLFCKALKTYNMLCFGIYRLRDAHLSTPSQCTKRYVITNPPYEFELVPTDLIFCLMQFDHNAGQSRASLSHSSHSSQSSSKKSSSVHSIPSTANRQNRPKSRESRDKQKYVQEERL

[5] = target: Calcium-activated potassium channel subunit alpha-1 KCNMA1 (Mus musculus) (UniProt Q08460); experiment: Compound was tested for its effect on maxi-K-mediated outward current in Xenopus laevis oocytes expressing the cloned maxi-K channel mslo at a concentration of 10 uM; settings: oocyte

Chain of Calcium-activated potassium channel subunit alpha-1 KCNMA1 (Mus musculus) (Q08460 whole entry, looked up): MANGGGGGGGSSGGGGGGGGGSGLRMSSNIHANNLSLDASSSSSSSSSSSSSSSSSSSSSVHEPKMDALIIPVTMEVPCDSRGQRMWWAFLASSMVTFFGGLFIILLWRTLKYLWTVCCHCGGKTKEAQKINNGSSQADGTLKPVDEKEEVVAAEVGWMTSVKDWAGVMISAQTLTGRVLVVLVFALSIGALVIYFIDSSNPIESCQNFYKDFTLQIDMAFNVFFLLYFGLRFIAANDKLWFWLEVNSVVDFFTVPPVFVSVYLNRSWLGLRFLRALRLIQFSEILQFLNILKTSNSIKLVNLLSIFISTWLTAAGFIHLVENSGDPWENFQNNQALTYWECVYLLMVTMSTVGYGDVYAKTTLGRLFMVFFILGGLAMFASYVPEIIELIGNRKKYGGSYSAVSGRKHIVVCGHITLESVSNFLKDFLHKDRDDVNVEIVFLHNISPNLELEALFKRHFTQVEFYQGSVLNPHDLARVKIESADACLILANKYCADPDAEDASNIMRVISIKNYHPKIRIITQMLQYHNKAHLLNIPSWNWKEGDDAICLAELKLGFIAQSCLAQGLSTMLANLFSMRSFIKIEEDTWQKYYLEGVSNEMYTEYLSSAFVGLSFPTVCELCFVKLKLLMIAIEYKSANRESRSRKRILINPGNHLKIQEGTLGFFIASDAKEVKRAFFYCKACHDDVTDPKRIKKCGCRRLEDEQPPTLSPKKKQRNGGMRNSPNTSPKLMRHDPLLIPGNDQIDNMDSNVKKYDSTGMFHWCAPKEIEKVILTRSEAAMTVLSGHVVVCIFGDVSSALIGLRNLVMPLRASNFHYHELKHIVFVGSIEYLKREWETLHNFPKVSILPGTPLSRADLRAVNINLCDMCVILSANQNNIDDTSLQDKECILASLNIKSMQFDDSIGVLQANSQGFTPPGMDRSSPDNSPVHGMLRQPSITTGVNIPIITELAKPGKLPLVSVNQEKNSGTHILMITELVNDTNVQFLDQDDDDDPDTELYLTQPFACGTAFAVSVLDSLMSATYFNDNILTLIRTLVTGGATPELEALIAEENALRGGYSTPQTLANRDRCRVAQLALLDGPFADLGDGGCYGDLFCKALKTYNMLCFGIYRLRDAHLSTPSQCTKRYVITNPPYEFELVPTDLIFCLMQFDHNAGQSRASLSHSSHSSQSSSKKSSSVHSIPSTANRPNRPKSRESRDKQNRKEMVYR

Compound	Increase [1]	inhibition at 20 µM [2]	inhibition at 3 µM [3]	Increase [4]	Increase [5]
Oc1ccc(Cl)cc1-n1nc(-c2ccccc2C(F)(F)F)nc1O	117.1%	90%	34%		
Oc1ccc(Cl)cc1-n1nc(-c2ccc(C(F)(F)F)c(Cl)c2)nc1O	198.5%		5%		
Oc1ccc(Cl)cc1-n1nc(-c2ccc(C(F)(F)F)cc2C(F)(F)F)nc1O	175.5%	94%	46%		
Oc1ccc(Cl)cc1-n1nc(-c2cc(C(F)(F)F)cc(C(F)(F)F)c2)nc1O	154.2%		15%		
O=c1[nH]c(-c2ccc(C(F)(F)F)cc2)nn1-c1cc(Cl)ccc1O	196.8%	87%	22%		
Oc1ccc(Cl)cc1-n1nc(-c2ccccc2)nc1O		89.4%	35%	91.4%	
Oc1ccc(Cl)cc1-n1nc(-c2cccc(C(F)(F)F)c2)nc1O			42%		161.5%
O=c1[nH]c2cc(C(F)(F)F)ccc2n1-c1cc(Cl)ccc1O	131.8%	8%			

Source: ChEMBL document CHEMBL1136065, “The synthesis and structure-activity relationships of 1,3-diaryl 1,2,4-(4H)-triazol-5-ones: a new class of calcium-dependent, large conductance, potassium (maxi-K) channel opener targeted for urge urinary incontinence” (Bioorg Med Chem Lett, 2002)
